Source: patent US10131652B2, “Pyrimidinyloxy benzene derivatives as herbicides” (E. I. DU PONT DE NEMOURS AND COMPANY, priority 2014, dated 2018)
Read-outs that look alike come from different tables or passages of the source.

Columns and labels:
Experiment in all cases: Test E pre-/postemergence plant response
Assay type in all cases: in vivo
[1] = tested on: windgrass (Apera spica-venti); conditions: scale 0 to 100, read-out: Plant response rating, Windgrass; for pest or weed control at 16 g/ha: 16 g ai/ha; for pest or weed control at 62 g/ha: 62 g ai/ha; for pest or weed control at 125 g/ha: 125 g ai/ha
Procedure, shortened: (§1)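 Visual scores on a 0–100 scale (100 = complete control) were assigned against untreated controls 7–21 days after treatment in a controlled environment. Compounds, formulated with solvent plus surfactant, were applied to pre-emergence silt-loam sowings or to 1- to 4-leaf plants (2–18 cm) in potting medium.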

[2] = tested on: spring barley (Hordeum vulgare); conditions: for plant injury at 16 g/ha: 16 g ai/ha; for plant injury at 31 g/ha: 31 g ai/ha; for plant injury at 62 g/ha: 62 g ai/ha; for plant injury at 125 g/ha: 125 g ai/ha
Procedure, shortened: as §1

[3] = tested on: downy bromegrass (Bromus tectorum); conditions: scale 0 to 100, read-out: Plant response rating, Bromegrass, Downy; for pest or weed control at 16 g/ha: 16 g ai/ha; for pest or weed control at 31 g/ha: 31 g ai/ha; for pest or weed control at 62 g/ha: 62 g ai/ha; for pest or weed control at 125 g/ha: 125 g ai/ha
Procedure, shortened: as §1

[4] = tested on: chickweed (common chickweed, Stellaria media); conditions: scale 0 to 100, read-out: Plant response rating, Chickweed; for pest or weed control at 16 g/ha: 16 g ai/ha; for pest or weed control at 31 g/ha: 31 g ai/ha; for pest or weed control at 62 g/ha: 62 g ai/ha; for pest or weed control at 125 g/ha: 125 g ai/ha
Procedure, shortened: as §1

[5] = tested on: field poppy (Papaver rhoeas); conditions: scale 0 to 100, read-out: Plant response rating, Field Poppy; for pest or weed control at 16 g/ha: 16 g ai/ha; for pest or weed control at 31 g/ha: 31 g ai/ha; for pest or weed control at 62 g/ha: 62 g ai/ha; for pest or weed control at 125 g/ha: 125 g ai/ha
Procedure, shortened: as §1

kochia (Kochia scoparia) = conditions: Bassia scoparia, scale 0 to 100, read-out: Plant response rating, Kochia; for pest or weed control at 16 g/ha: 16 g ai/ha; for pest or weed control at 31 g/ha: 31 g ai/ha; for pest or weed control at 62 g/ha: 62 g ai/ha; for pest or weed control at 125 g/ha: 125 g ai/ha
Procedure, shortened: as §1

[6] = tested on: canarygrass (Phalaris minor); conditions: scale 0 to 100, read-out: Plant response rating, Canarygrass; for pest or weed control at 16 g/ha: 16 g ai/ha; for pest or weed control at 31 g/ha: 31 g ai/ha; for pest or weed control at 62 g/ha: 62 g ai/ha; for pest or weed control at 125 g/ha: 125 g ai/ha
Procedure, shortened: as §1

[7] = tested on: speedwell (bird's-eye speedwell, Veronica persica); conditions: scale 0 to 100, read-out: Plant response rating, Speedwell; for pest or weed control at 16 g/ha: 16 g ai/ha; for pest or weed control at 62 g/ha: 62 g ai/ha; for pest or weed control at 125 g/ha: 125 g ai/ha
Procedure, shortened: as §1

[8] = tested on: winter barley (Hordeum vulgare); conditions: scale 0 to 100, read-out: Plant response rating, Barley, Winter; for plant injury at 16 g/ha: 16 g ai/ha; for plant injury at 31 g/ha: 31 g ai/ha; for plant injury at 62 g/ha: 62 g ai/ha; for plant injury at 125 g/ha: 125 g ai/ha
Procedure, shortened: as §1

[9] = tested on: pigweed (Amaranthus retroflexus); conditions: scale 0 to 100, read-out: Plant response rating, Pigweed; for pest or weed control at 16 g/ha: 16 g ai/ha; for pest or weed control at 31 g/ha: 31 g ai/ha; for pest or weed control at 62 g/ha: 62 g ai/ha; for pest or weed control at 125 g/ha: 125 g ai/ha
Procedure, shortened: as §1

[10] = tested on: wild buckwheat (Polygonum convolvulus); conditions: Fallopia convolvulus, scale 0 to 100, read-out: Plant response rating, Buckwheat, Wild; for pest or weed control at 16 g/ha: 16 g ai/ha; for pest or weed control at 31 g/ha: 31 g ai/ha; for pest or weed control at 62 g/ha: 62 g ai/ha; for pest or weed control at 125 g/ha: 125 g ai/ha
Procedure, shortened: as §1

[11] = post-emergence, 31 g ai/ha, Postemergence
[12] = post-emergence, Postemergence, scale 0 to 100, read-out: Plant response rating, Barley, Spring
[13] = pre-emergence, Preemergence, scale 0 to 100, read-out: Plant response rating, Barley, Spring

FC(F)c1cc(-c2ccccc2Oc2ncc(Br)cn2)no1 [Compound 62, 5-bromo-2-[2-[5-(difluoromethyl)-3-isoxazolyl]phenoxy]pyrimidine]
pest or weed control at 16 g/ha ([1]; post-emergence, Postemergence): 10%
pest or weed control at 31 g/ha [1, 11]: 20%
pest or weed control at 62 g/ha ([1]; post-emergence, Postemergence): 30%
pest or weed control at 125 g/ha ([1]; post-emergence, Postemergence): 65%
pest or weed control at 16 g/ha ([1]; pre-emergence, Preemergence): 0%
pest or weed control at 62 g/ha ([1]; pre-emergence, Preemergence): 50%
pest or weed control at 125 g/ha ([1]; pre-emergence, Preemergence): 50%
plant injury at 16 g/ha [2, 12]: 10%
plant injury at 31 g/ha [2, 12]: 15%
plant injury at 62 g/ha [2, 12]: 20%
plant injury at 125 g/ha ([2]; post-emergence, Postemergence, scale 0 to 100 (0 no effect, 100 complete control), read-out: Plant response rating, Barley, Spring): 25%
plant injury at 16 g/ha [2, 13]: 0%
plant injury at 31 g/ha [2, 13]: 0%
plant injury at 62 g/ha [2, 13]: 0%
plant injury at 125 g/ha [2, 13]: 0%
pest or weed control at 16 g/ha ([3]; post-emergence, Postemergence): 10%
pest or weed control at 31 g/ha ([3]; post-emergence, Postemergence): 15%
pest or weed control at 62 g/ha ([3]; post-emergence, Postemergence): 20%
pest or weed control at 125 g/ha ([3]; post-emergence, Postemergence): 40%
pest or weed control at 16 g/ha ([3]; pre-emergence, Preemergence): 0%
pest or weed control at 31 g/ha ([3]; pre-emergence, Preemergence): 0%
pest or weed control at 62 g/ha ([3]; pre-emergence, Preemergence): 10%
pest or weed control at 125 g/ha ([3]; pre-emergence, Preemergence): 20%
pest or weed control at 16 g/ha ([4]; post-emergence, Postemergence): 65%
pest or weed control at 31 g/ha ([4]; post-emergence, Postemergence): 70%
pest or weed control at 62 g/ha ([4]; post-emergence, Postemergence): 80%
pest or weed control at 125 g/ha ([4]; post-emergence, Postemergence): 90%
pest or weed control at 16 g/ha ([4]; pre-emergence, Preemergence): 65%
pest or weed control at 31 g/ha ([4]; pre-emergence, Preemergence): 75%
pest or weed control at 62 g/ha ([4]; pre-emergence, Preemergence): 100%
pest or weed control at 125 g/ha ([4]; pre-emergence, Preemergence): 100%
pest or weed control at 16 g/ha ([5]; post-emergence, Postemergence): 40%
pest or weed control at 31 g/ha ([5]; post-emergence, Postemergence): 55%
pest or weed control at 62 g/ha ([5]; post-emergence, Postemergence): 70%
pest or weed control at 125 g/ha ([5]; post-emergence, Postemergence): 75%
pest or weed control at 16 g/ha ([5]; pre-emergence, Preemergence): 65%
pest or weed control at 31 g/ha ([5]; pre-emergence, Preemergence): 75%
pest or weed control at 62 g/ha ([5]; pre-emergence, Preemergence): 100%
pest or weed control at 125 g/ha ([5]; pre-emergence, Preemergence): 100%
pest or weed control at 16 g/ha (kochia (Kochia scoparia); post-emergence, Postemergence): 65%
pest or weed control at 31 g/ha (kochia (Kochia scoparia); post-emergence, Postemergence): 75%
pest or weed control at 62 g/ha (kochia (Kochia scoparia); post-emergence, Postemergence): 90%
pest or weed control at 125 g/ha (kochia (Kochia scoparia); post-emergence, Postemergence): 95%
pest or weed control at 16 g/ha (kochia (Kochia scoparia); pre-emergence, Preemergence): 0%
pest or weed control at 31 g/ha (kochia (Kochia scoparia); pre-emergence, Preemergence): 5%
pest or weed control at 62 g/ha (kochia (Kochia scoparia); pre-emergence, Preemergence): 85%
pest or weed control at 125 g/ha (kochia (Kochia scoparia); pre-emergence, Preemergence): 100%
pest or weed control at 16 g/ha ([6]; post-emergence, Postemergence): 25%
pest or weed control at 31 g/ha ([6]; post-emergence, Postemergence): 35%
pest or weed control at 62 g/ha ([6]; post-emergence, Postemergence): 45%
pest or weed control at 125 g/ha ([6]; post-emergence, Postemergence): 55%
pest or weed control at 16 g/ha ([6]; pre-emergence, Preemergence): 0%
pest or weed control at 31 g/ha ([6]; pre-emergence, Preemergence): 0%
pest or weed control at 62 g/ha ([6]; pre-emergence, Preemergence): 50%
pest or weed control at 125 g/ha ([6]; pre-emergence, Preemergence): 90%
pest or weed control at 16 g/ha ([7]; post-emergence, Postemergence): 70%
pest or weed control at 31 g/ha [7, 11]: 95%
pest or weed control at 62 g/ha ([7]; post-emergence, Postemergence): 100%
pest or weed control at 125 g/ha ([7]; post-emergence, Postemergence): 100%
pest or weed control at 16 g/ha ([7]; pre-emergence, Preemergence): 95%
pest or weed control at 62 g/ha ([7]; pre-emergence, Preemergence): 95%
pest or weed control at 125 g/ha ([7]; pre-emergence, Preemergence): 100%
plant injury at 16 g/ha ([8]; post-emergence, Postemergence): 5%
plant injury at 31 g/ha ([8]; post-emergence, Postemergence): 10%
plant injury at 62 g/ha ([8]; post-emergence, Postemergence): 20%
plant injury at 125 g/ha ([8]; post-emergence, Postemergence): 35%
plant injury at 16 g/ha ([8]; pre-emergence, Preemergence): 0%
plant injury at 31 g/ha ([8]; pre-emergence, Preemergence): 0%
plant injury at 62 g/ha ([8]; pre-emergence, Preemergence): 5%
plant injury at 125 g/ha ([8]; pre-emergence, Preemergence): 5%
pest or weed control at 16 g/ha ([9]; post-emergence, Postemergence): 90%
pest or weed control at 31 g/ha ([9]; post-emergence, Postemergence): 90%
pest or weed control at 62 g/ha ([9]; post-emergence, Postemergence): 95%
pest or weed control at 125 g/ha ([9]; post-emergence, Postemergence): 95%
pest or weed control at 16 g/ha ([9]; pre-emergence, Preemergence): 95%
pest or weed control at 31 g/ha ([9]; pre-emergence, Preemergence): 100%
pest or weed control at 62 g/ha ([9]; pre-emergence, Preemergence): 100%
pest or weed control at 125 g/ha ([9]; pre-emergence, Preemergence): 100%
pest or weed control at 16 g/ha ([10]; post-emergence, Postemergence): 75%
pest or weed control at 31 g/ha ([10]; post-emergence, Postemergence): 80%
pest or weed control at 62 g/ha ([10]; post-emergence, Postemergence): 95%
pest or weed control at 125 g/ha ([10]; post-emergence, Postemergence): 100%
pest or weed control at 16 g/ha ([10]; pre-emergence, Preemergence): 25%
pest or weed control at 31 g/ha ([10]; pre-emergence, Preemergence): 35%
pest or weed control at 62 g/ha ([10]; pre-emergence, Preemergence): 80%
pest or weed control at 125 g/ha ([10]; pre-emergence, Preemergence): 100%
